The text below walks through data of patent US9700543B2, “GLP-1 receptor stabilizers and modulators” (Celgene International II SÀRL, priority 2011, dated 2017).

The target in one series is T1, GLP-1R (Homo sapiens, UniProt P43220).
T1 construct: host or cells: CRE-bla CHO-K1
Nature of the series: EC20 GLP-1(9-36) PAM cAMP assay: dose response of compound in the presence of fixed concentration of GLP-1(9-36). Conditions: compound dose response with fixed GLP-1(9-36), GLP-1R CRE-bla CHO-K1 cells; for EC20 GLP-1 (9-36) PAM Activity max cAMP: Emax as total cAMP; for EC50: cAMP. Type of series: cell-based. The method, then:
EC20GLP-1(9-36) PAM cAMP Assay: Dose Response of Compound in the Presence of Fixed Concentration of GLP-1 (9-36)
GLP-1R CRE-bla CHO-K1 cells were seeded into 384-well white flat bottom plates at 10,000 cells/well/20 μL growth medium (DMEM-High glucose, 10% dialyzed FBS, 0.1 mM NEAA, 25 mM Hepes, 100 U/mL penicillin/100 μg/mL streptomycin, 5 μg/mL Blasticidin, 600 μg/mL Hygromycin) and incubated for 18 h at 37° C. in 5% CO2. Growth medium was replaced with 12 μL assay buffer (Hanks Balanced Salt solution, 10 mM Hepes, 0.1% BSA, pH7.4). A 5× compound dose response curve (12-point) was generated in assay buffer containing 1.5 mM IBMX, 12.5% DMSO. GLP-1(9-36) was diluted to 4.2 μM in assay buffer containing 1.5 mM IBMX and 12.5% DMSO. The 5× compound dose response was added (3 μL), followed by 0.5 μL of GLP-1(9-36) and cells were incubated for 30 min at 37° C. Direct detection of cAMP was carried out using DiscoveRx HitHunter cAMP kit according to manufacturer's instructions and luminescence was read using a SpectraMax M5 plate reader. Luminescence was converted to total cAMP using a cAMP standard curve and data was analyzed by non-linear regression to determine the EC50 and Emax.
For orientation: Changes in cAMP serve as a functional read-out for many G protein-coupled receptors.

Series [1] in a line: Determination of absolute oral bioavailability in rats. The format is in vivo. Conditions: rat, plasma; fasted female Sprague-Dawley rats; oral solution 5 mg/kg, intravenous 1 mg/kg. Here is the method: Determination of Absolute Oral Bioavailability in Rats
All pharmacokinetic studies were conducted in fasted female Sprague-Dawely rats (Simonsen Laboratories or Harlan Laboratories). Rats were housed in an ALAAC accredited facility and the research was approved by the facilities Institutional Animal Care and Use Committee (IACUC). The animals were acclimated to the laboratory for at least 48 h prior to initiation of experiments.
Compounds were formulated in 20% hydroxy beta cyclodextrin or 20% captisol and 80%-25 mM NaPO4 Buffer (pH 8) (intravenous infusion), or 5% DMSO/5% Tween20 and 90% water (oral gavage or intraperitoneal injection). The concentration of the dosing solutions was verified by HPLC-UV. For intravenous dosing, compounds were administered into the tail vein to manually restrained animals (n=3 rats/compound). The intravenous dose was 1 mg/kg. Oral dosing was by gavage using a standard stainless steel gavage needle (n=2-4 rats/compound). The oral solution dose was 5 mg/kg. For compounds 1 and 3, the oral solution dose was 30 mg/kg. For both routes of administration, blood was collected into BD Microtainer tubes with Dipotassium EDTA as the anticoagulantant eight time-points after dosing with the final sample drawn 24 h post dose Plasma was separated by centrifugation and transferred to a polypropylene 96-well plate and kept at 4° C. until analysis.
Proteins were precipitated by adding 150 μL acetonitrile to 50 μL of plasma. Plates were mixed for 1 min on a plate shaker to facilitate protein precipitation and then centrifuged at 3,000 rpm for 10 min to pellet protein. The supernatant was transferred to a clean plate and centrifuged at 3,000 rpm for 10 min to pellet any remaining solid material prior to LC/MS/MS analysis. Calibration curve standards were prepared by spiking 54 compound stock in DMSO into rat plasma from untreated animals. An eight point standard curve spanning a range of 0.14 nM to 300 nM was included with each bio-analytical run. The standards were processed identically to the rat pharmacokinetic samples.
Concentrations in the rat pharmacokinetic samples were determined using a standardized HPLC-LC/MS/MS method relative to the eight point standard curve. The system consisted of a Leap CTC Pal injector, Agilent 1200 HPLC with binary pump coupled with an Applied Biosystems 4000 QTrap. Compounds were chromatographed on a Phenomenex Luna C8(2) 20×2 mm 2 um Mercury Cartridge with Security Guard. A gradient method was used with mobile phase A consisting of 0.1% formic acid in water and mobile phase B consisting of 0.1% formic acid in acetonitrile at flow rates varying from 0.7 to 0.8 mL/min. Ions were generated in positive ionization mode using an electrospray ionization (ESI) interface. Multiple reaction monitoring (MRM) methods were developed specific to each compound. The heated nebulizer was set at 500° C. with a nebulizer current of 5.1 μA. Collision energies used to generate daughter ions ranged between 29 and 80 V. Peak area obtained from MRM of the mass transitions specific for each compound were used for quantification. The limit of quantification of the method was typically 1.2 nM. Data were collected and analyzed using Analyst software version 1.5.1. Blood concentration versus time data were analyzed using non-compartmental methods (WinNonlin Phoenix version 6.2; model 200 for oral or intraperitoneal dosing and model 202 for intravenous infusion). Absolute oral bioavailability (%) was calculated using the following expression: (Oral AUC×IV Dose)/(IV AUC×Oral Dose)×100.

T1 sequence (P43220 24-463): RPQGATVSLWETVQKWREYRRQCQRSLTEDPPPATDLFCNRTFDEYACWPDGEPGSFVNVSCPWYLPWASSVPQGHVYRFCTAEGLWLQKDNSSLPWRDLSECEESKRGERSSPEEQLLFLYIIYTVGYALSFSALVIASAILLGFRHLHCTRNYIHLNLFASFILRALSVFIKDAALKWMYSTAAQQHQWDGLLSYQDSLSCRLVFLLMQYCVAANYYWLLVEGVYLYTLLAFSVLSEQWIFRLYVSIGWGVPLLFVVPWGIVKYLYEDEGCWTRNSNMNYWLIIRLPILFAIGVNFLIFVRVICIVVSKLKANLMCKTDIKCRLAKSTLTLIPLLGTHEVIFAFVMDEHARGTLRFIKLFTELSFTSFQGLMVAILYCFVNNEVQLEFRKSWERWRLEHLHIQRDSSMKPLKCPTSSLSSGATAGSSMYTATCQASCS
T1 sequence (P01275 100-127 partner limits assumed): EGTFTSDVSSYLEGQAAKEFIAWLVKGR

Turning to `COc1ccc(CC(=O)Nc2ccc(C(=O)N(CC(=O)O)Cc3ccc(-c4nc(-c5ccc(-c6ccc(C)cc6)cc5)no4)cc3)cc2)c(C(F)(F)F)c1` [Compound 362, 2-(4-(2-(4-methoxy-2-(trifluoromethyl)phenyl)acetamido)-N-(4-(3-(4′-methyl-[1,1′-biphenyl]-4-yl)-1,2,4-oxadiazol-5-yl)benzyl)benzamido)acetic acid], on GLP-1R, the “EC20 GLP-1 (9-36) PAM Activity max cAMP” value worked out at 281 nM and the EC50 (as a rule, the concentration giving half of the maximal effect) was determined as 300 nM. In addition, the bioavailability (as a rule, the share of a dose that reaches the circulation, judged against a reference dose that is usually intravenous) in series [1] was found to be 8%.
Turning to `COc1ccc(CC(=O)Nc2ccc(C(=O)N(CC(=O)O)Cc3ccc(-c4nc(-c5ccc(C)cc5)no4)cc3)cc2)c(C(F)(F)F)c1` [Compound 363, 2-(4-(2-(4-methoxy-2-(trifluoromethyl)phenyl)acetamido)-N-(4-(3-(p-tolyl)-1,2,4-oxadiazol-5-yl)benzyl)benzamido)acetic acid], on GLP-1R, the “EC20 GLP-1 (9-36) PAM Activity max cAMP” value turned out to be 237 nM and the EC50 worked out at 3200 nM. Besides, the bioavailability in series [1] is 3%.
For `COc1ccc(CC(=O)Nc2ccc(C(=O)N(CC(=O)O)Cc3ccc(-c4coc(-c5ccc(-c6ccc(C)cc6)cc5)n4)cc3)cc2)c(C(F)(F)F)c1` [Compound 364, 2-(4-(2-(4-methoxy-2-(trifluoromethyl)phenyl)acetamido)-N-(4-(2-(4′-methyl-[1,1′-biphenyl]-4-yl)oxazol-4-yl)benzyl)benzamido)acetic acid], in that order: 278 nM, 400 nM and 10%.
In the case of `COc1ccc(OC)c(CC(=O)Nc2ccc(C(=O)N(CC(=O)O)Cc3ccc(-c4noc(-c5ccc(-c6ccc(C)cc6)cc5)n4)cc3)cc2)c1` [Compound 405, 2-(4-(2-(2,5-dimethoxyphenyl)acetamido)-N-(4-(5-(4′-methyl-[1,1′-biphenyl]-4-yl)-1,2,4-oxadiazol-3-yl)benzyl)benzamido)acetic acid], at GLP-1R, the “EC20 GLP-1 (9-36) PAM Activity max cAMP” value is on record as 206 nM and the EC50 was determined as 300 nM. Also, in series [1], the bioavailability was found to be 8%.
The matching figures for `COc1cccc(OC)c1CC(=O)Nc1ccc(C(=O)N(CC(=O)O)Cc2ccc(-c3noc(-c4ccc(-c5ccc(C)cc5)cc4)n3)cc2)cc1` [Compound 411, 2-(4-(2-(2,6-dimethoxyphenyl)acetamido)-N-(4-(5-(4′-methyl-[1,1′-biphenyl]-4-yl)-1,2,4-oxadiazol-3-yl)benzyl)benzamido)acetic acid]: 258 nM, 200 nM and 10%.
`COc1ccc(F)c(CC(=O)Nc2ccc(C(=O)N(CC(=O)O)Cc3ccc(-c4noc(-c5ccc(-c6ccc(C)cc6)cc5)n4)cc3)cc2)c1F` [Compound 441, 2-(4-(2-(2,6-difluoro-3-methoxyphenyl)acetamido)-N-(4-(5-(4′-methyl-[1,1′-biphenyl]-4-yl)-1,2,4-oxadiazol-3-yl)benzyl)benzamido)acetic acid]: at GLP-1R, the “EC20 GLP-1 (9-36) PAM Activity max cAMP” value came to 167 nM and the EC50 worked out at 500 nM. The bioavailability in series [1] was determined as 5%.
The matching figures for `COc1ccc(OC)c(CC(=O)Nc2ccc(C(=O)N(CC(=O)O)Cc3ccc(-c4nc(-c5ccc(-c6ccc(C)cc6)cc5)no4)cc3)cc2)c1` [Compound 457, 2-(4-(2-(2,5-dimethoxyphenyl)acetamido)-N-(4-(3-(4′-methyl-[1,1′-biphenyl]-4-yl)-1,2,4-oxadiazol-5-yl)benzyl)benzamido)acetic acid]: 266 nM, 200 nM and 19.4%.
The matching figures for `COc1cccc(OC)c1CC(=O)Nc1ccc(C(=O)N(CC(=O)O)Cc2ccc(-c3nc(-c4ccc(-c5ccc(C)cc5)cc4)no3)cc2)cc1` [Compound 458, 2-(4-(2-(2,6-dimethoxyphenyl)acetamido)-N-(4-(3-(4′-methyl-[1,1′-biphenyl]-4-yl)-1,2,4-oxadiazol-5-yl)benzyl)benzamido)acetic acid]: 302 nM, 200 nM and 14.8%.
For `COc1ccc(CC(=O)Nc2ccc(C(=O)N(CC(=O)O)Cc3ccc(-c4noc(-c5ccc(-c6ccc(C)cc6)cc5)n4)cc3)c(F)c2)c(C(F)(F)F)c1` [Compound 496, 2-(2-fluoro-4-(2-(4-methoxy-2-(trifluoromethyl)phenyl)acetamido)-N-(4-(5-(4′-methyl-[1,1′-biphenyl]-4-yl)-1,2,4-oxadiazol-3-yl)benzyl)benzamido)acetic acid], in that order: 310 nM, 500 nM and 7%.
